Read-outs that look alike come from different tables or passages of the source.

For the experiment, the target named is huPrP(23–230) (Homo sapiens, UniProt P04156). Format: binding. The conditions noted are these: for k2 (microscopic association constant of xenon to the open state): k1 = 0, pH 4.5.

Regarding `[Xe]` [xenon], the “ΔG24 (free energy of xenon binding to the open state)” value (binding site A1, 293 K) is -19.7 ± 0.3 kJ/M; the “ΔG24 (free energy of xenon binding to the open state)” value (binding site A2, 293 K) is -14.91 ± 0.03 kJ/M; the “ΔG24 (free energy of xenon binding to the open state)” value (binding site B, 293 K) was -20.5 ± 0.2 kJ/M; the “ΔG24 (free energy of xenon binding to the open state)” value (binding site C, 293 K) is -11.5 ± 0.7 kJ/M; the “ΔG24 (free energy of xenon binding to the open state)” value (binding site D, 293 K) is -14.24 ± 0.02 kJ/M. Moreover, the Kd is 12.5 mM (binding site A1, Kapp = 1/k2 + k3/k2, 293 K, read-out: Kapp Xe (apparent xenon dissociation constant)); 14.6 mM (binding site A2, Kapp = 1/k2 + k3/k2, 293 K, read-out: Kapp Xe (apparent xenon dissociation constant)); 9.1 mM (binding site B, Kapp = 1/k2 + k3/k2, 293 K, read-out: Kapp Xe (apparent xenon dissociation constant)); 11.4 mM (binding site C, Kapp = 1/k2 + k3/k2, 293 K, read-out: Kapp Xe (apparent xenon dissociation constant)); 11.8 mM (binding site D, Kapp = 1/k2 + k3/k2, 293 K, read-out: Kapp Xe (apparent xenon dissociation constant)); roughly 10 mM (order of magnitude, over all cavities, read-out: apparent dissociation constants). Besides, the “k2 (microscopic association constant of xenon to the open state)” value is 3.2 ± 0.4 mM⁻¹ (binding site A1, 293 K); 0.46 ± 0.01 mM⁻¹ (binding site A2, 293 K); 4.5 ± 0.4 mM⁻¹ (binding site B, 293 K, k3 set to 39); 0.11 ± 0.03 mM⁻¹ (binding site C, 293 K); 0.34 ± 0.02 mM⁻¹ (binding site D, 293 K). The “apparent xenon affinities k2/(1 + k3)” value (order of magnitude, over all cavities) was roughly 0.1 mM⁻¹.

These data come from article PMC4920026 (Scientific Reports, 2016).
